Residues, ends and D or L forms follow the SMILES beside them.
Legend:
5cc7 T cell blasts = format: cell-based, mice; details: 5cc7 T cells; peptide presented by I-Ek; read-out: signaling potency (EC50)
Protocol: Selection of library derived I-Ek peptides for further characterization. Peptides were chosen from the deep sequencing data across a wide range of sequence prevalence for further study via SPR, activity, and structural characterization. Peptides were chosen that were recognized by 1, 2, or all 3 I-E^k reactive TCRs. All peptides were tested for activity with both 2B4 and 5cc7 T cell clones regardless of for which TCR they were initially selected. A subset of peptides was chosen to further characterize via SPR. The 2A peptide that was structurally characterized in FIG. 5A was discovered by manual curation of an I-Ek peptide library. 2A is highly homologous to peptides represented in the deep sequencing data and co-clusters with MCC.
Activity assay for I-Ek-selected peptides. Lymphocytes were isolated from 5cc7 or 2B4 TCR transgenic Rag−/− mice. […] CD69 upregulation was measured using an Accuri C6 flow cytometer with an autosampler (BD) by measuring CD69 MFI in the CD4+ gate. Data was then normalized and EC50s measured via Prism. IL-2 release was measured in technical triplicates via anti-IL-2 Elisa (Ready-setgo mouse IL-2 ELISA kit, eBioscience 88-7024), as recommended by the manufacturer. […] Absorbance was measured via SpectraMax Paradigm (Molecular Devices), with EC50 determined via Graphpad Prism.

5cc7 TCR = experiment: Surface plasmon resonance affinity of peptide-I-Ek for 5cc7 TCR; format: binding, murine; details: SPR, peptide exchanged into soluble I-Ek
From the text: Refolded Murine TCRs for crystallography and affinity measurements. Refolded 2B4, 226, and 5cc7 were created essentially as described. For […] and 5c2 crystal structures, the 5c1 and 5c2 peptides were fused to the N-terminus of 5cc7β via a 10-amino acid GlySer linker. TCRs were purified via size exclusion chromatography and assayed via SDS-PAGE to ensure 1:1 α:β stoichiometry. If there were an excess of TCRβ, ββ homodimer was purified away from αβ heterodimer via ion exchange chromatography on a MonoQ column (GE Healthcare) using a 20 mM Tris pH 8/20 mM Tris pH8+ 500 mM NaCl buffer system. Proteins were then reexchanged into HBS for further use.
Surface plasmon resonance. Affinity measurements for peptides bound to I-Ek for 226, 2B4, and 5cc7 TCRs were determined via surface plasmon resonance on a Biacore T100 (GE Healthcare). 10 μM of peptide of interest was added to biotinylated Clip-I-Ek. 1 U thrombin/100 μg MHC was added and incubated at 37°. After 1 hour, pH was lowered by adding sodium cacodylate pH 6.2 to 30 mM and sample was incubated at 37° overnight. Samples were then neutralized with 40 mM HEPES pH 7.2 and stored at 4° until use. pMHC exchanged with the peptide of interest were bound to a Biacore SA chip (GE Healthcare) at a low surface density (100-200 RU) to ensure no recapture of analyte. I-Ek exchanged with a null peptide (MCC K99E) was used as the reference surface. […]

Row | SMILES | EC50 (5cc7 T cell blasts) | Kd (5cc7 TCR)
1 | CC(C)C[C@H](NC(=O)[C@H](Cc1ccccc1)NC(=O)[C@H](Cc1ccccc1)NC(=O)[C@H](C)NC(=O)[C@@H](NC(=O)CNC(=O)[C@H](CC(N)=O)NC(=O)[C@H](C)N)C(C)C)C(=O)N[C@H](C(=O)N1CCC[C@H]1C(=O)N[C@@H](Cc1ccccc1)C(=O)N[C@@H](CCCCN)C(=O)O)[C@@H](C)O [compound 50] (H-ANGVAFFLTPFK-OH; N-terminus and C-terminus assumed) | 1.5 µM | 115 µM
2 | CC[C@H](C)[C@H](NC(=O)[C@H](CC(C)C)NC(=O)[C@H](CC(=O)O)NC(=O)[C@H](C)N)C(=O)N[C@@H](C)C(=O)N[C@@H](Cc1ccc(O)cc1)C(=O)N[C@@H](CC(C)C)C(=O)N[C@@H](CCCCN)C(=O)N[C@@H](CCC(N)=O)C(=O)N[C@@H](C)C(=O)N[C@H](C(=O)N[C@@H](CCCCN)C(=O)O)[C@@H](C)O [MCC, reference compound] (H-ADLIAYLKQATK-OH; N-terminus and C-terminus assumed) |  | 41 µM
